Data published in patent US20180155429A1, “TREATMENT OF PD-L1 POSITIVE LUNG CANCER USING AN ANTI-PD-1 ANTIBODY” (Bristol-Myers Squibb Company, priority 2015, published 2018).

Columns and labels:
[1] = tested on: advanced non-squamous (non-SQ) NSCLC; assay: Randomized phase III study of nivolumab versus docetaxel, efficacy (OS, PFS, ORR, DOR, also by tumor PD-L1 expression); type: in vivo, human; conditions: for Best overall response CR / Best overall response PD / Best overall response PR / Best overall response SD / Best overall response Unable to determine: Nivo N = 292, Doc N = 290; for mOS: PD-L1+ patients; for 1-year PFS rate / median OS / 1-year OS rate: all randomized pts; for 1-year OS rate: nivolumab 3 mg/kg IV Q2W, docetaxel 75 mg/m^2 IV Q3W; for Median time to response: all responders (NIVO, n = 56; DOC, n = 36); for Ongoing response: at last tumor assessment before censoring, responders
Method: (§1) 582 patients were randomized to receive either nivolumab or docetaxel. 292 were randomized to receive nivolumab, and of these, 287 actually received nivolumab. 290 were randomized to receive docetaxel, and of these, 268 actually received docetaxel. Patients were treated with nivolumab at 3 mg/kg IV Q2W until they experienced a progressive disease or unacceptable toxicity. Patients were treated with docetaxel at 75 mg/m^2 IV Q3W until progressive disease or unacceptable toxicity occurred. The primary end point of the study was overall survival (OS). The secondary endpoints of the study were overall response rate (ORR) (Per RECIST v1.1 criteria as determined by the investigator), progression free survival (PFS) (Per RECIST v1.1 criteria as determined by the investigator), efficacy by tumor PD-L1 expression, and disease-related symptom improvement rate by week 12. An overview of the trial can be seen in FIGS. 1A and 1B.
All patients had either stage IIIB or stage IV non-squamous NSCLC and 1 prior PT-DC treatment. Prior maintenance therapy with pemetrexed, bevacizumab or erlotinib was allowed (and was not considered a separate line of therapy). Prior TKI therapy was allowed for a known ALK translocation or EGFR mutation. The ECOG PS was 0-1. Patients were stratified by prior maintenance therapy and line of therapy (second-vs third-line)
In this example, ALK means anaplastic lymphoma kinase; ECOG PS means Eastern Cooperative Oncology Group performance status; EGFR means epidermal growth factor receptor; IV means intravenous; LCSS means Lung Cancer Symptom Scale; ORR means objective response rate; OS=overall survival; PFS=progression-free survival; PD=progressive disease; and TKI means tyrosine kinase inhibitor.
The PD-L1 expression was measured for the patients. The DAKO PD-L1 Assay Analytical Validation and Clinical Sample Testing is described in Table 3.

[2] = Randomized phase III study of nivolumab versus docetaxel, exposure and safety; type: in vivo, human; conditions: for Treatment-related deaths: at DBL, treated pts
Method: as §1

PD-1 = target: T1, PD-1 (Homo sapiens, UniProt Q15116); conditions: 15 subjects, 0.3 mg/kg to 10 mg/kg, across all doses, cited from earlier work
T1 construct: Receptor-occupancy data from 15 subjects who received 0.3 mg/kg to 10 mg/kg dosing with nivolumab indicate that PD-1 occupancy appears to be dose-independent; endogenous in cells
T1 sequence (Q15116 25-288): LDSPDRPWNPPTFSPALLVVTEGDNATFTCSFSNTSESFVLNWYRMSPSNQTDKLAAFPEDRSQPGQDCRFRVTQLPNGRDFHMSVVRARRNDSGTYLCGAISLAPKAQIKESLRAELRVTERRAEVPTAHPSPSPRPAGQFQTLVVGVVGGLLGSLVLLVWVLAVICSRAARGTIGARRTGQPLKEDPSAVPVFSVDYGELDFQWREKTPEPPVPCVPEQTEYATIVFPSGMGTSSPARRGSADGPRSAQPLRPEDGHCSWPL

[3] = cited from earlier work
[4] = all randomized pts (Nivo N = 292, Doc N = 290), RECIST v1.1, investigator

Compound	Best overall response CR [1]	Best overall response PD [1]	Best overall response PR [1]	Best overall response SD [1]	Best overall response Unable to determine [1]	mOS ([1]; 1% expression level) [months]	mOS ([1]; 5% expression level) [months]	mOS ([1]; 10% expression level) [months]	Median DOR ([1]; PD-L1 Negative (<1%)) [mos]	ORR ([1]; PD-L1 Negative (<1%)) [%]	Median DOR ([1]; PD-L1 Negative (<5%)) [mos]	ORR ([1]; PD-L1 Negative (<5%)) [%]	Median DOR ([1]; PD-L1 Negative (<10%)) [mos]	ORR ([1]; PD-L1 Negative (<10%)) [%]	Median DOR ([1]; PD-L1 Not quantifiable) [mos]	ORR ([1]; PD-L1 Not quantifiable) [%]	Median DOR ([1]; PD-L1 Positive (≥1%)) [mos]	ORR ([1]; PD-L1 Positive (≥1%)) [%]	Median DOR ([1]; PD-L1 Positive (≥5%)) [mos]	ORR ([1]; PD-L1 Positive (≥5%)) [%]	further results
CC(=O)O[C@@]12CO[C@@H]1C[C@H](O)[C@@]1(C)C(=O)[C@H](O)C3=C(C)[C@@H](OC(=O)[C@H](O)[C@@H](NC(=O)OC(C)(C)C)c4ccccc4)C[C@@](O)([C@@H](OC(=O)c4ccccc4)[C@H]21)C3(C)C [docetaxel, reference compound]	(0.3) %	(29) %	(12) %	(42) %	(16) %	9.0	8.1	8.0	5.6	15	5.6	14	5.6	14	6.6	9.1	5.6	12	5.6	13	Median DOR ([1]; PD-L1 Positive (≥10%)): 5.6 mos; ORR ([1]; PD-L1 Positive (≥10%)): 13%; 1-year PFS rate [1]: 8.1%; median OS [1]: 9.4 months; ORR [1, 4]: 12%; 1-year OS rate [1]: 39%; Median DOR ([1]; all responders): 5.6 mos; Median time to response [1]: 2.6 mos; Ongoing response [1]: (14) %; Treatment-related deaths [2]: 0.4^9; Treatment-related select AE: Hypothyroidism ([2]; human, in vivo): 0%; Treatment-related select AE: Pneumonitis ([2]; human, in vivo): 0.4%
nivolumab	(1.4) %	(44) %	(18) %	(25) %	(11) %	17.2	18.2	19.4	18.3	9.3	18.3	10	18.3	11	7.3	13	16.0	31	16.0	36	Estimated odds ratio (95% CI) for ORR ([1]; Nivo vs Doc, P-value 0.0246): 1.7 (1.1, 2.6); Median DOR ([1]; PD-L1 Positive (≥10%)): 16.0 mos; ORR ([1]; PD-L1 Positive (≥10%)): 37%; 1-year PFS rate [1]: 19%; median OS [1]: 12.2 months; ORR [1, 4]: 19%; 1-year OS rate [1]: 51%; Median DOR ([1]; all responders): 17.2 mos; Median time to response [1]: 2.1 mos; Ongoing response [1]: (52) %; reduction in risk of death ([1]; nivolumab in comparison to docetaxel): 27%; HR (risk of death) ([1]; nivolumab in comparison to docetaxel, P=0.0015): 0.73; Treatment-related deaths [2]: 0^8; safety profile ([2]; in vivo): favorable vs docetaxel; mean plateau PD-1 occupancy (PD-1; range 59% to 81%): 72%; mean PD-1 occupancy rate (PD-1; range 70% to 97%): 85%; tolerated dose ([3]; given intravenously every 2 weeks): up to 10 mg/kg; maximum tolerated dose (MTD) ([3]; nivolumab monotherapy every two weeks, MTD not reached): > 10 mg/kg
